22 compounds from patent US20240254118A1, “PRMT5 INHIBITORS AND USES THEREOF” (Gilead Sciences, Inc., priority 2022, published 2024) can be followed below.

Usually EC50 stands for the concentration at which the effect is half-maximal. As usually defined, the CC50 is the concentration that lowers cell viability or growth by half.

For experiment [1], the system named is SDMA signal (PRMT5 inhibition) in HCT116 MTAP-deleted cells. As to the kind of experiment: Symmetric di-methyl arginine image-based high content screen assay (SDMA assay), HCT116 MTAP-deleted. In kind it is cell-based. The conditions noted are these: SDMA assay; for EC50: Homo sapiens, HCT-116, 72 h, 3 days of treatment, cell line not given, taken as HCT116 MTAP-deleted, read-out: EC50 (SDMA assay); for EC50 selectivity (SDMA assay): taken as HCT116 WT versus MTAP-deleted. The procedure, abridged: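 HCT116 MTAP-deleted cells treated with compound until Day 3, then formalin-fixed, permeabilized and immunostained for SDMA, with DAPI nuclear counterstain. Imaged by high-content microscopy; SDMA read-out is mean Alexa 488 intensity per DAPI-defined cell, reflecting PRMT5 inhibition.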

The test system of experiment [2] is HCT116 MTAP-deleted cells. As to the kind of experiment: Cell viability assay (CellTiter-Glo, 7 days), HCT116 MTAP-deleted. The conditions noted are these: Homo sapiens, HCT-116, 168 h. A general note: In ATP-based viability assays light output follows the ATP content of the culture.

As for `CN(C(=O)C1CC1)N(Cc1ccc(C(F)(F)F)cc1F)C(=O)c1ccc2nc(N)c3cnn(C)c3c2c1` [Example 344, 4-amino-N′-(cyclopropanecarbonyl)-N-(2-fluoro-4-(trifluoromethyl)benzyl)-N′,1-dimethyl-1H-pyrazolo[4,3-c]quinoline-8-carbohydrazide], in experiment [1], the EC50 is under 1 nM and the “EC50 selectivity (SDMA assay)” value came to 48. Also, the CC50 in experiment [2] is under 100 nM.
With `Cn1ncc2c(N)nc3ccc(C(=O)N(Cc4ccc(C(F)(F)F)cn4)N4CC5(CC(F)(F)C5)OC4=O)cc3c21` [Example 345, 4-amino-N-(2,2-difluoro-6-oxo-5-oxa-7-azaspiro[3.4]octan-7-yl)-1-methyl-N-((5-(trifluoromethyl)pyridin-2-yl)methyl)-1H-pyrazolo[4,3-c]quinoline-8-carboxamide], in experiment [1], the EC50 was 1 to 5 nM and the “EC50 selectivity (SDMA assay)” value worked out at 152. In addition, in experiment [2], the CC50 was in the range of 100 to 1000 nM.
Regarding `Cn1ncc2c(N)nc3ccc(C(=O)N(NC(=O)C4CC4)C4COc5cc(C(F)(F)F)ccc54)cc3c21` (stereo not drawn) [Example 349, 4-amino-N′-(cyclopropanecarbonyl)-1-methyl-N-(6-(trifluoromethyl)-2,3-dihydrobenzofuran-3-yl)-1H-pyrazolo[4,3-c]quinoline-8-carbohydrazide], in experiment [1], the EC50 was under 1 nM and the “EC50 selectivity (SDMA assay)” value is 13. The CC50 in experiment [2] was under 100 nM.
Taken in the same sequence, the figures for `CCOC(=O)NN(C(=O)c1ccc2nc(N)c3cnn(C)c3c2c1)C1COc2cc(C(F)(F)F)ccc21` (stereo not drawn) [Example 350, ethyl 2-(4-amino-1-methyl-1H-pyrazolo[4,3-c]quinoline-8-carbonyl)-2-(6-(trifluoromethyl)-2,3-dihydrobenzofuran-3-yl)hydrazine-1-carboxylate] were under 1 nM, 42 and under 100 nM.
Taken in the same sequence, the figures for `CC(=O)N(C)N(Cc1ccc(C(F)(F)F)c(F)c1)C(=O)c1ccc2nc(N)c3cnn(C)c3c2c1` [Example 351, N′-acetyl-4-amino-N-(3-fluoro-4-(trifluoromethyl)benzyl)-N′,1-dimethyl-1H-pyrazolo[4,3-c]quinoline-8-carbohydrazide] were 1 to 5 nM, 33 and under 100 nM.
Consider `Cn1ncc2c(N)nc3ccc(C(=O)N(Cc4ccc(C(F)(F)F)cn4)N4CC(F)(F)C4)cc3c21` [Example 359, 4-amino-N-(3,3-difluoroazetidin-1-yl)-1-methyl-N-((5-(trifluoromethyl)pyridin-2-yl)methyl)-1H-pyrazolo[4,3-c]quinoline-8-carboxamide], for which, in experiment [1], the EC50 was under 1 nM and the “EC50 selectivity (SDMA assay)” value stood at 320. This compound also returned a CC50 in experiment [2] of under 100 nM.
Taken in the same sequence, the figures for `CN(C(=O)C1CC1)N(Cc1ncc(Cl)cc1F)C(=O)c1ccc2nc(N)c3cnn(C)c3c2c1` [Example 360, 4-amino-N-((5-chloro-3-fluoropyridin-2-yl)methyl)-N′-(cyclopropanecarbonyl)-N′,1-dimethyl-1H-pyrazolo[4,3-c]quinoline-8-carbohydrazide] were 1 to 5 nM, 446 and under 100 nM.
For `CN(c1ccsn1)N(Cc1ccc(C(F)(F)F)cn1)C(=O)c1ccc2nc(N)c3cnn(C)c3c2c1` [Example 361], in that order: under 1 nM, 34 and under 100 nM.
For `Cn1ncc2c(N)nc3ccc(C(=O)N(Cc4ccc(C(F)(F)F)cn4)N4C(=O)O[C@H]5CC[C@H]54)cc3c21` [Example 362, 4-amino-1-methyl-N-((1S,5R)-3-oxo-2-oxa-4-azabicyclo[3.2.0]heptan-4-yl)-N-((5-(trifluoromethyl)pyridin-2-yl)methyl)-1H-pyrazolo[4,3-c]quinoline-8-carboxamide], in that order: 1 to 5 nM, 468 and under 100 nM.
On to `Cn1ncc2c(N)nc3ccc(C(=O)N(Cc4ccc(F)cc4F)N4CCOCC4)cc3c21` [Example 365, 4-amino-N-(2,4-difluorobenzyl)-1-methyl-N-morpholino-1H-pyrazolo[4,3-c]quinoline-8-carboxamide], for which, in experiment [1], the EC50 lay in the range of 1 to 5 nM and the “EC50 selectivity (SDMA assay)” value came to 233. This compound also registered a CC50 in experiment [2] of 100 to 1000 nM.
As to `CN(C(=O)C1CC1)N(Cc1ccc(-c2cnn(C(F)(F)F)c2)cc1)C(=O)c1ccc2nc(N)c3cnn(C)c3c2c1` [Example 374, 4-amino-N′-(cyclopropanecarbonyl)-N′,1-dimethyl-N-[[4-[1-(trifluoromethyl)pyrazol-4-yl]phenyl]methyl]pyrazolo[4,3-c]quinoline-8-carbohydrazide], in experiment [1], the EC50 lay in the range of 1 to 5 nM and the “EC50 selectivity (SDMA assay)” value is listed as 125. In experiment [2], the CC50 was under 100 nM.
Turning to `CC(=O)N(C)N(Cc1ccc(-c2cnn(C(F)(F)F)c2)cc1)C(=O)c1ccc2nc(N)c3cnn(C)c3c2c1` [Example 375, N′-acetyl-4-amino-N′,1-dimethyl-N-[[4-[1-(trifluoromethyl)pyrazol-4-yl]phenyl]methyl]pyrazolo[4,3-c]quinoline-8-carbohydrazide], in experiment [1], the EC50 is 1 to 5 nM and the “EC50 selectivity (SDMA assay)” value is reported as 141. In experiment [2], this compound yielded a CC50 of under 100 nM.
For `CN(C(=O)C1CC1)N(Cc1ccc(-c2cnn(C(F)(F)F)c2)cc1Cl)C(=O)c1ccc2nc(N)c3cnn(C)c3c2c1` [Example 376, 4-amino-N-[[2-chloro-4-[1-(trifluoromethyl)pyrazol-4-yl]phenyl]methyl]-N′-(cyclopropanecarbonyl)-N′,1-dimethyl-pyrazolo[4,3-c]quinoline-8-carbohydrazide], in that order: 1 to 5 nM, 164 and under 100 nM.
As to `CN1CCN(N(Cc2ccc(C(F)(F)F)cn2)C(=O)c2ccc3nc(N)c4cnn(C)c4c3c2)C(=O)C1` [Example 382, 4-amino-1-methyl-N-(4-methyl-2-oxo-piperazin-1-yl)-N-[[5-(trifluoromethyl)-2-pyridyl]methyl]pyrazolo[4,3-c]quinoline-8-carboxamide], in experiment [1], the EC50 lay in the range of 1 to 5 nM and the “EC50 selectivity (SDMA assay)” value turned out to be 167. Moreover, the CC50 in experiment [2] is under 100 nM.
Regarding `CN1CCN(N(Cc2ccc(C(F)(F)F)cn2)C(=O)c2cc3c(cc2F)nc(N)c2cnn(C)c23)C(=O)C1` [Example 383, 4-amino-7-fluoro-1-methyl-N-(4-methyl-2-oxo-piperazin-1-yl)-N-[[5-(trifluoromethyl)-2-pyridyl]methyl]pyrazolo[4,3-c]quinoline-8-carboxamide], in experiment [1], the EC50 fell in the range of 1 to 5 nM and the “EC50 selectivity (SDMA assay)” value was determined as 168. This compound displayed a 50% cytotoxic concentration (CC50) in experiment [2] of under 100 nM.
In the case of `CC(=O)N1CCN(N(Cc2ccc(C(F)(F)F)cn2)C(=O)c2ccc3nc(N)c4cnn(C)c4c3c2)CC1` [Example 384, N-(4-acetylpiperazin-1-yl)-4-amino-1-methyl-N-[[5-(trifluoromethyl)-2-pyridyl]methyl]pyrazolo[4,3-c]quinoline-8-carboxamide], in experiment [1], the EC50 was in the range of 1 to 5 nM and the “EC50 selectivity (SDMA assay)” value worked out at 283. The compound further returned a CC50 in experiment [2] of 100 to 1000 nM.
With `COCC(=O)N(C)N(Cc1ccc(C(F)(F)F)cn1)C(=O)c1ccc2nc(N)c3cnn(C)c3c2c1` [Example 385, 4-amino-N′-(2-methoxyacetyl)-N′,1-dimethyl-N-[[5-(trifluoromethyl)-2-pyridyl]methyl]pyrazolo[4,3-c]quinoline-8-carbohydrazide], in experiment [1], the EC50 was in the range of 1 to 5 nM and the “EC50 selectivity (SDMA assay)” value was determined as 52. In experiment [2], this compound returned a half-maximal cytotoxic concentration (CC50) of under 100 nM.
For the compound `COCC(=O)N(C)N(Cc1ccc(C(F)(F)F)cn1)C(=O)c1cc2c(cc1F)nc(N)c1cnn(C)c12` [Example 386, 4-amino-7-fluoro-N′-(2-methoxyacetyl)-N′,1-dimethyl-N-[[5-(trifluoromethyl)-2-pyridyl]methyl]pyrazolo[4,3-c]quinoline-8-carbohydrazide], in experiment [1], the EC50 is 1 to 5 nM and the “EC50 selectivity (SDMA assay)” value worked out at 20. Moreover, in experiment [2], the CC50 is under 100 nM.
For `CC(=O)N(C)N(Cc1ccc(C#CC2CCCO2)cc1F)C(=O)c1ccc2nc(N)c3cnn(C)c3c2c1` (stereo not drawn) [Example 387, N′-acetyl-4-amino-N-[[2-fluoro-4-(2-tetrahydrofuran-2-ylethynyl)phenyl]methyl]-N′,1-dimethyl-pyrazolo[4,3-c]quinoline-8-carbohydrazide], in that order: 1 to 5 nM, 44 and under 100 nM.
In the case of `CC(=O)N(C)N(Cc1ccc(C#CC2CCOC2)cc1F)C(=O)c1ccc2nc(N)c3cnn(C)c3c2c1` (stereo not drawn) [Example 388, N′-acetyl-4-amino-N-[[2-fluoro-4-(2-tetrahydrofuran-3-ylethynyl)phenyl]methyl]-N′,1-dimethyl-pyrazolo[4,3-c]quinoline-8-carbohydrazide], in experiment [1], the EC50 was under 1 nM and the “EC50 selectivity (SDMA assay)” value stood at 40. The compound further displayed a CC50 in experiment [2] of under 100 nM.
Taken in the same sequence, the figures for `CC(=O)N(C)N(Cc1ccc(C#CC(C)(C)O)cc1F)C(=O)c1ccc2nc(N)c3cnn(C)c3c2c1` [Example 389, N′-acetyl-4-amino-N-[[2-fluoro-4-(3-hydroxy-3-methyl-but-1-ynyl)phenyl]methyl]-N′,1-dimethyl-pyrazolo[4,3-c]quinoline-8-carbohydrazide] were 1 to 5 nM, 31 and under 100 nM.
Taken in the same sequence, the figures for `CC(=O)N(C)N(Cc1ccc(C#CC23CC(C2)C3)cc1F)C(=O)c1ccc2nc(N)c3cnn(C)c3c2c1` [Example 390, N′-acetyl-4-amino-N-[[4-[2-(1-bicyclo[1.1.1]pentanyl)ethynyl]-2-fluoro-phenyl]methyl]-N′,1-dimethyl-pyrazolo[4,3-c]quinoline-8-carbohydrazide] were 1 to 5 nM, 27 and under 100 nM.
